Measured values: ChEMBL document CHEMBL3046707, “Cheminformatic designing of de novo inhibitors to 3-methyl adenine DNA glycosylase I (LiTagA) from Leptospira interrogans serovar lai strain 56601” (Med Chem Res, 2013)

Molecular target: T1, DNA-3-methyladenine glycosylase 1 (Escherichia coli (strain K12), UniProt P05100)
T1 sequence (P05100 whole entry): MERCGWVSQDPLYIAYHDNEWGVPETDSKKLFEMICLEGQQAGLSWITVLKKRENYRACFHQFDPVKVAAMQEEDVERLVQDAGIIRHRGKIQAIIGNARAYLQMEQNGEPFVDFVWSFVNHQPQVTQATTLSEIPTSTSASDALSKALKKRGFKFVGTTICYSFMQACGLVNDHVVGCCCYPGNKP
Test: Inhibition of Escherichia coli DNA-3-methyladenine glycosylase 1

| Structure (SMILES) | IC50 |
| --- | --- |
| CCn1cnc(N)c2ncnc1-2 [3-ETHYLADENINE] | 50 µM |
| Cn1cnc(N)c2ncnc1-2 [3-METHYLADENINE] | 1500 µM |

Stronger by IC50, values ahead:

| IC50 | Structure (SMILES) |
| --- | --- |
| 5 µM | CCCn1cnc(N)c2ncnc1-2 [3-PROPYLADENINE] |
| 2.3 µM | CCCCn1cnc(N)c2ncnc1-2 [3-BUTYLADENINE] |
| 0.4 µM | Nc1ncn(Cc2ccccc2)c2ncnc1-2 [3-BENZYLADENINE] |
